Patent US20110319379A1, “Substituted Indazole Amides And Their Use As Glucokinase Activators” (priority 2009, published 2011)

The compounds below were run against T1, recombinant human glucokinase (Homo sapiens, UniProt P35557) (assay: Assay 2: Evaluating Activator Potency in a Matrix Assay at Multiple Glucose Concentrations). Conditions: Assay 2 matrix assay; 16 glucose concentrations; intrinsic EC50 = concentration affording a 50% reduction in the enzyme's Km (for glucose); read-out: Glucokinase EC50.
T1 construct: Full-length glucokinase (beta cell isoform) was His-tagged at the N-terminus and purified by a Ni column followed by size exclusion chromatography as described above; His tag; made in house; host or cells: E. coli BL21(DE3), vector pBCGK
T1 sequence (P35557 1-465): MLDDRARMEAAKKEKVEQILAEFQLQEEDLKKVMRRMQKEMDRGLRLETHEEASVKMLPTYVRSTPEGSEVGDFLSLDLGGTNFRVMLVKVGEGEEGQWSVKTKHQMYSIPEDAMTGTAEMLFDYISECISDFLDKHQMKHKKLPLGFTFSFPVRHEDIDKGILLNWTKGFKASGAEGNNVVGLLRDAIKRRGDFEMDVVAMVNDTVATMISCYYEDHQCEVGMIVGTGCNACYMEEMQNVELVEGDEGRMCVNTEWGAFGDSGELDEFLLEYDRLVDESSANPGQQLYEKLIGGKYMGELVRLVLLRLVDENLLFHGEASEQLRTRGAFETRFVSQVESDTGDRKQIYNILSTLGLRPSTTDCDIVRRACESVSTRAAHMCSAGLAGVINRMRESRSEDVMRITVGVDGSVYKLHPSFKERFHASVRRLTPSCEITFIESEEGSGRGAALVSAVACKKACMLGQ
Type: biochemical
An EC50 of 2320 nM was found for `CC(=O)N(C)c1cnc(Oc2cc(C(=O)Nc3ccc(C)cn3)cc3nn(C)cc23)cn1` [Example 1CN, 2-methyl-4-(5-(N-methylacetamido)pyrazin-2-yloxy)-N-(5-methylpyridin-2-yl)-2H-indazole-6-carboxamide] in this work. An EC50 of 1880 nM was found for `CCn1cc2c(Oc3cnc(C(N)=O)cn3)cc(C(=O)Nc3ccc(C)cn3)cc2n1` [Example 1CO, 4-(5-carbamoylpyrazin-2-yloxy)-2-ethyl-N-(5-methylpyridin-2-yl)-2H-indazole-6-carboxamide] in this work. An EC50 of 2280 nM was found for `CCn1cc2c(Oc3cnc(C(=O)N4CCOCC4)cn3)cc(C(=O)Nc3ccc(C)cn3)cc2n1` [Example 1CP, 2-ethyl-N-(5-methylpyridin-2-yl)-4-(5-(morpholine-4-carbonyl)pyrazin-2-yloxy)-2H-indazole-6-carboxamide] in this work. An EC50 of 2880 nM was found for `CCn1cc2c(Oc3ccc(S(N)(=O)=O)cc3)cc(C(=O)Nc3ccn(C)n3)cc2n1` [Example 1CQ, 4-[4-(aminosulfonyl)phenoxy]-2-ethyl-N-(1-methyl-1H-pyrazol-3-yl)-2H-indazole-6-carboxamide] in this work. An EC50 of 586 nM was found for `CCn1cc2c(Oc3ccc(S(N)(=O)=O)cc3)cc(C(=O)Nc3cnc(C)cn3)cc2n1` [Example 1CR, 4-[4-(aminosulfonyl)phenoxy]-2-ethyl-N-(5-methylpyrazin-2-yl)-2H-indazole-6-carboxamide] in this work. An EC50 of 418 nM was found for `CCn1cc2c(Oc3ccc(S(N)(=O)=O)cc3)cc(C(=O)Nc3cnc(OC)cn3)cc2n1` [Example 1CS, 4-[4-(aminosulfonyl)phenoxy]-2-ethyl-N-(5-methoxypyrazin-2-yl)-2H-indazole-6-carboxamide] in this work. An EC50 of 1820 nM was found for `CCn1cc2c(Oc3ccc(S(N)(=O)=O)cc3)cc(C(=O)Nc3ccc(F)cn3)cc2n1` [Example 1CT, 4-[4-(aminosulfonyl)phenoxy]-2-ethyl-N-(5-fluoropyridin-2-yl)-2H-indazole-6-carboxamide] in this work. An EC50 of 1370 nM was found for `CCc1cnc(NC(=O)c2cc(Oc3ccc(S(N)(=O)=O)cc3)c3cn(CC)nc3c2)cn1` [Example 1CU, 4-[4-(aminosulfonyl)phenoxy]-2-ethyl-N-(5-ethylpyrazin-2-yl)-2H-indazole-6-carboxamide] in this work. An EC50 of 715 nM was found for `CCn1cc2c(Oc3ccc(S(C)(=N)=O)cc3)cc(C(=O)Nc3ccc(C)cn3)cc2n1` (stereo not shown) [Example 1CV, 2-ethyl-N-(5-methylpyridin-2-yl)-4-[4-(S-methylsulfonimidoyl)phenoxy]-2H-indazole-6-carboxamide] in this work. An EC50 of 2470 nM was found for `CCn1cc2c(Oc3ccc(S(C)(=N)=O)cc3)cc(C(=O)Nc3ccn(C)n3)cc2n1` (stereo not shown) [Example 1CY, 2-ethyl-N-(1-methyl-1H-pyrazol-3-yl)-4-[4-(S-methylsulfonimidoyl)phenoxy]-2H-indazole-6-carboxamide] in this work.

The compounds below were run against T2, recombinant human glucokinase (beta cell isoform) (Homo sapiens, UniProt P35557) (assay: Assay 1: Evaluating Activator Potency and Maximum Activation at 5 mM Glucose). Conditions: not given.
T2 construct: Full-length glucokinase (beta cell isoform) was His-tagged at the N-terminus; His tag (N); made in house; host or cells: E. coli BL21(DE3), vector pBCGK
T2 sequence (P35557 1-465): T1 sequence (P35557 1-465)
Type: biochemical
Experimental: Representative compounds of this invention were evaluated in biochemical assays (Assay 1 or Assay 2) to characterize their glucokinase activation properties.
The recombinant human glucokinase protein utilized in both assays was prepared and purified as described below.
BL21(DE3) cells (Invitrogen Corporation, Carlsbad, Calif.) containing pBCGK (C or N H is) vector were grown at 37° C. (in 2XYT) until the OD600 was between 0.6-1.0. Expression was induced by addition of isopropylthiogalactoside to a final concentration of 0.1-0.2 mM to the cells which were then incubated overnight at 23° C. The next day, cells were harvested via centrifugation at 5000 rpm for 15 minutes at 4° C. The cell pellet was stored at −80° C. for future purification.
Beta Cell Glucokinase His-Taq Purification Conditions: A Ni-NTA (Quigan, Germantown, Md.) column (15-50 mL) was used for separation. Two buffers were prepared, 1) a lysis/nickel equilibration and wash buffer and 2) a nickel elution buffer. The lysis/equilibration/wash buffer was prepared as such: 25 mM HEPES buffer at pH 7.5, 250 mM NaCl, 20 mM imidazole, and 14 mM β-mercaptoethanol as final concentrations. The elution buffer was prepared as such: 25 mM HEPES at pH 7.5, 250 mM NaCl, 400 mM imidazole, and 14 mM β-mercaptoethanol as final concentrations. The buffers were each filtered with a 0.22 μm filter prior to use. The cell pellet (1 L culture) was resuspended in 300 mL of the lysis/equilibration buffer. The cells were then lysed (3 times) with a Microfluidics Model 110Y microfluidizer (Microfluidics Corporation, Newton, Mass.). The slurry was centrifuged with a Beckman Coulter Model LE-80K ultracentrifuge (Beckman Coulter, Fullerton, Calif.) at 40,000 rpm for 45 minutes at 4° C. The supernatant was transferred to a chilled flask. A volume of 20 μl was saved for gel analysis. A Pharmacia AKTA (GMI, Inc., Ramsey, Minn.) purification system was used for separation. The prime lines were purged with lysis/equilibration buffer. The Ni-NTA column was equilibrated with 200 mL of the lysis/equilibration buffer at a flow rate of 5 mL/minute. The supernantant was loaded over the column at 4 mL/minute and the flow-through was collected in a flask. The unbound proteins were washed with lysis/equilibration buffer at a flow rate of 5 mL/minute until the ultraviolet reaches baseline. The protein was then eluted from the column with the imidazole elution buffer via imidazole gradient 20 mM to 400 mM over 320 mL. The column was then stripped of any additional protein with 80 mL of the elution buffer. The elution fractions were each 8 mL, for a total yield of 50 samples. Fractions were analyzed by sodium dodecyl sulfate polyacrylamide (SDS-PAGE) and the fractions containing protein of interest were pooled and concentrated to 10 mL using ultrafiltration cell with a 10,000 molecular weight cut-off (MWCO) Millipore membrane (Sigma-Aldrich, St. Louis, Mo.) under nitrogen gas (60 psi). Protein was further purified by size exclusion chromatography (SEC) using a […] (320 mL) (Amersham Pharmacia, Uppsala, Sweden). SEC was equilibrated with 450 mL sizing buffer containing 25 mM HEPES pH 7.0, 50 mM NaCl, and 5 mM dithiothreitol. Concentrated protein was then loaded over SEC and elution with 400 mL sizing buffer was performed overnight at 0.5 mL/minute. The elution fractions were 5 mL each. The fractions were analyzed by SDS-PAGE and protein containing fractions were pooled. Concentration was measured using Bradford Assay/BSA Standard. Purified protein was stored in small aliquots at −80° C.
Assay 1: Evaluating Activator Potency and Maximum Activation at 5 mM Glucose
Full-length glucokinase (beta cell isoform) was His-tagged at the N-terminus and purified by a Ni column followed by size exclusion chromatography as described above. Glucose was obtained from Calbiochem (San Diego, Calif.) and other reagents were purchased from Sigma-Aldrich (St. Louis, Mo.).
An EC50 of 1630 nM was found for `Cc1cnc(NC(=O)c2cc(Oc3cnc(C(=O)N(C)C)c(F)c3)c3cn(C)nc3c2)cn1` [Example 1AC, 4-{[6-(dimethylcarbamoyl)-5-fluoropyridin-3-yl]oxy}-2-methyl-N-(5-methylpyrazin-2-yl)-2H-indazole-6-carboxamide] in this work.

Same assay, conditions: Assay 1; 5 mM glucose; NADH depletion at 340 nm, PK/LDH coupled; read-out: Glucokinase EC50
An EC50 of 293 nM was found for `Cc1ccc(NC(=O)c2cc(Oc3cnc(C(=O)N4CCCC4)cn3)c3cn(C)nc3c2)nc1` [Example 1A, 2-methyl-N-(5-methylpyridin-2-yl)-4-(5-(pyrrolidine-1-carbonyl)pyrazin-2-yloxy)-2H-indazole-6-carboxamide] in this work. An EC50 of 863 nM was found for `CN(C)C(=O)c1ncc(Oc2cc(C(=O)Nc3ccc(Cl)cn3)cc3nn(C)cc23)cn1` [Example 1AA, N-(5-chloropyridin-2-yl)-4-(2-(dimethylcarbamoyl)pyrimidin-5-yloxy)-2-methyl-2H-indazole-6-carboxamide] in this work. An EC50 of 1040 nM was found for `CN(C)C(=O)c1ncc(Oc2cc(C(=O)Nc3ccc(C(F)(F)F)cn3)cc3nn(C)cc23)cn1` [Example 1AB, 4-(2-(dimethylcarbamoyl)pyrimidin-5-yloxy)-2-methyl-N-(5-(trifluoromethyl)-pyridin-2-yl)-2H-indazole-6-carboxamide] in this work. An EC50 of 463 nM was found for `CCn1cc2c(Oc3ccc(S(=O)(=O)CC)cc3)cc(C(=O)Nc3ccc(C)cn3)cc2n1` [Example 1AD, 2-ethyl-4-[4-(ethylsulfonyl)phenoxy]-N-(5-methylpyridin-2-yl)-2H-indazole-6-carboxamide] in this work. An EC50 of 569 nM was found for `CCn1cc2c(Oc3cnc(C(=O)N(C)C)c(F)c3)cc(C(=O)Nc3cnc(C)cn3)cc2n1` [Example 1AE, 4-(6-(dimethylcarbamoyl)-5-fluoropyridin-3-yloxy)-2-ethyl-N-(5-methylpyrazin-2-yl)-2H-indazole-6-carboxamide] in this work. An EC50 of 960 nM was found for `Cn1cc2c(Oc3cnc(C(=O)N4CCCC4)cn3)cc(C(=O)Nc3cnccn3)cc2n1` [Example 1B, 2-methyl-N-pyrazin-2-yl-4-{[5-(pyrrolidin-1-ylcarbonyl)pyrazin-2-yl]oxy}-2H-indazole-6-carboxamide] in this work. An EC50 of 1490 nM was found for `Cc1ccc(NC(=O)c2cc(Oc3ccc(C(=O)N4CCCC4)c(F)c3)c3cn(C)nc3c2)nc1` [Example 1C, 4-[3-fluoro-4-(pyrrolidin-1-ylcarbonyl)-phenoxy]-2-methyl-N-(5-methylpyridin-2-yl)-2H-indazole-6-carboxamide] in this work. An EC50 of 735 nM was found for `Cn1cc2c(Oc3ccc(C(=O)N4CCCC4)c(F)c3)cc(C(=O)Nc3cnccn3)cc2n1` [Example 1D, 4-[3-fluoro-4-(pyrrolidin-1-ylcarbonyl)-phenoxy]-2-methyl-N-pyrazin-2-yl-2H-indazole-6-carboxamide] in this work. An EC50 of 4310 nM was found for `CN(C)C(=O)c1cnc(Oc2cc(C(=O)Nc3cnccn3)cc3nn(C)cc23)cn1` [Example 1E, 4-{[5-(dimethylcarbamoyl)pyrazin-2-yl]oxy}-2-methyl-N-pyrazin-2-yl-2H-indazole-6-carboxamide] in this work. An EC50 of 2490 nM was found for `Cc1cnc(NC(=O)c2cc(Oc3cnc(C(=O)N(C)C)cn3)c3cn(C)nc3c2)cn1` [Example 1F, 4-{[5-(dimethylcarbamoyl)pyrazin-2-yl]oxy}-2-methyl-N-(5-methylpyrazin-2-yl)-2H-indazole-6-carboxamide] in this work. An EC50 of 1550 nM was found for `Cc1ccc(NC(=O)c2cc(Oc3cnc(C(=O)N(C)C)cn3)c3cn(C)nc3c2)nc1` [Example 1G, 4-{[5-(dimethylcarbamoyl)pyrazin-2-yl]oxy}-2-methyl-N-(5-methylpyridin-2-yl)-2H-indazole-6-carboxamide] in this work.
